The results in this text go back to patent US20240315990A1, “Adelmidrol For Use In Diseases Characterized By Insufficient Agonism Of PPAR-GAMMA Receptor” (Epitech Group S.P.A., priority 2016, published 2024).

In the assay the target is T1, PPAR-gamma receptor (Rattus norvegicus, UniProt O88275).
T1 construct: from tissue; host or cells: live rat (in vivo, paw edema model)
T1 sequence (O88275 1-505): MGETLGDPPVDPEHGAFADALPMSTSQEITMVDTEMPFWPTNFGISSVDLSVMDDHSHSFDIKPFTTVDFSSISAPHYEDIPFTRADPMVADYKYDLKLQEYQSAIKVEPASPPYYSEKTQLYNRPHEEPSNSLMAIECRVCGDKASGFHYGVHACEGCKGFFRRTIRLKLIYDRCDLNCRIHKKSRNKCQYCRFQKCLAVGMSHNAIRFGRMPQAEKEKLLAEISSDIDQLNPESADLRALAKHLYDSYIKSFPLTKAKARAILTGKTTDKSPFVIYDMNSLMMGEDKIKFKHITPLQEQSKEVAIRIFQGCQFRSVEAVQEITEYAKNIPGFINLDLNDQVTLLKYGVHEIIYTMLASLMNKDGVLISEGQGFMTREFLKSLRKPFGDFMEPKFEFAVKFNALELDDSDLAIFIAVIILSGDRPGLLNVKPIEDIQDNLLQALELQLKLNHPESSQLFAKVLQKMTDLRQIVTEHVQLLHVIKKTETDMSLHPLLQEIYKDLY
Description: carrageenan-induced rat paw edema with PPAR-gamma antagonist GW9662, residence time of the paw on the hot plate. It is filed as in vivo. The note with it: GW9662 1 mg/kg i.p. 30 min before CAR, Adelmidrol 10 mg/kg i.p. As to the method:
The experimental model of carrageenan-induced rat paw edema is as shown above. In this experiment, the effect was assessed by measuring the residence time of the animal's paw on the hot plate, thus obtaining percentage data with respect to the control treated with carrageenan alone.
The rats (10 animals per group) were divided into the following experimental groups: • CAR+physiological solution; • CAR+GW9662 (1 mg/kg)+Adelmidrol (10 mg/kg); GW9662 was administered i.p. 30 min before injecting CAR and Adelmidrol (i.p.) when injecting CAR; • CAR+Adelmidrol (10 mg/kg); Adelmidrol was administered i.p. when injecting CAR.
For orientation: The carrageenan paw model is a standard test of acute inflammation.

Turning to `O=C(Nc1ccccc1)c1cc([N+](=O)[O-])ccc1Cl` [GW9662, reference compound], the “effect of pretreatment with PPAR-gamma antagonist on the protective action of Adelmidrol” value is “antagonized the effect of Adelmidrol thus substantially abolishing the protective action thereof”.
